Here are results for seven molecules from paper PMC4120670 (Kidney International, 2014).

For data set [1] the following is noted: more modest effects, clinical; cited from earlier work.
In data set [2] the target is MATE2-K (Homo sapiens, UniProt Q86VL8). The experiment in a line: Inhibition of MATE2-K transport of tetraethylammonium. The data set is classed as cell-based.
For data set [3], the target named is T1, OAT2 (Homo sapiens, UniProt Q9Y694).
T1 sequence (Q9Y694 1-548): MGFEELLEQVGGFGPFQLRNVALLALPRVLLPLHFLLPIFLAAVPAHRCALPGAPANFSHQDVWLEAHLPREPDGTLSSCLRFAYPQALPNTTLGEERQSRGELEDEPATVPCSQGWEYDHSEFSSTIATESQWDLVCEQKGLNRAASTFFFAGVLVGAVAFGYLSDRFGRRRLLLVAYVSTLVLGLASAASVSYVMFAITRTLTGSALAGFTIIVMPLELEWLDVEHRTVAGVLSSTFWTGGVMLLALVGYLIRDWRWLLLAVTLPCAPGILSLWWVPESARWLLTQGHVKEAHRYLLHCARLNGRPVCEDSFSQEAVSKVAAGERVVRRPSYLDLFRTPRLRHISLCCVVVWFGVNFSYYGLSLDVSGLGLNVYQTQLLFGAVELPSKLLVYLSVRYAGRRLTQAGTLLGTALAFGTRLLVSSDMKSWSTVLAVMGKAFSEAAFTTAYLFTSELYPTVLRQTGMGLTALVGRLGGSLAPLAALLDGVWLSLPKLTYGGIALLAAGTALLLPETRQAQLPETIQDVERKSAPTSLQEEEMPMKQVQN
The experiment in a line: Inhibition of OAT2 transport of 3′,5′-cyclic GMP. The data set is classed as cell-based.

Data set [4] has as its target T2, OCT2 (Homo sapiens, UniProt O15244).
T2 sequence (O15244 1-555): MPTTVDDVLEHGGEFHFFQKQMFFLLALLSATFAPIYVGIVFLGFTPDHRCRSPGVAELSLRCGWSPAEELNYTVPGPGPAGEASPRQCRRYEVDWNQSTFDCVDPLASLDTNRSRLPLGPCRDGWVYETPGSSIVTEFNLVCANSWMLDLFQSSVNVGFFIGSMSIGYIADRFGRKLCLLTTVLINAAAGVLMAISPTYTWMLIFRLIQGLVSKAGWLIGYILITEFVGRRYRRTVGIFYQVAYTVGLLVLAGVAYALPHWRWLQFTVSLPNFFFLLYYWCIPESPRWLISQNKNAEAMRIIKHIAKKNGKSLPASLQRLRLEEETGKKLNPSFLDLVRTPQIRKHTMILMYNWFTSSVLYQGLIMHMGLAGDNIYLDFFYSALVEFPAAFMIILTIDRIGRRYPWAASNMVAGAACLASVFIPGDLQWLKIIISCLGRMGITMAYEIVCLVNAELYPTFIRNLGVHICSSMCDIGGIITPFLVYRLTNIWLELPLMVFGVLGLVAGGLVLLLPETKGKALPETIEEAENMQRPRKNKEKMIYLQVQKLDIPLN
Nature of the data set: Inhibition of OCT2 transport of tetraethylammonium. The format is cell-based.

Data set [5] addresses T3, OCT3 (Homo sapiens, UniProt O75751).
T3 sequence (O75751 1-556): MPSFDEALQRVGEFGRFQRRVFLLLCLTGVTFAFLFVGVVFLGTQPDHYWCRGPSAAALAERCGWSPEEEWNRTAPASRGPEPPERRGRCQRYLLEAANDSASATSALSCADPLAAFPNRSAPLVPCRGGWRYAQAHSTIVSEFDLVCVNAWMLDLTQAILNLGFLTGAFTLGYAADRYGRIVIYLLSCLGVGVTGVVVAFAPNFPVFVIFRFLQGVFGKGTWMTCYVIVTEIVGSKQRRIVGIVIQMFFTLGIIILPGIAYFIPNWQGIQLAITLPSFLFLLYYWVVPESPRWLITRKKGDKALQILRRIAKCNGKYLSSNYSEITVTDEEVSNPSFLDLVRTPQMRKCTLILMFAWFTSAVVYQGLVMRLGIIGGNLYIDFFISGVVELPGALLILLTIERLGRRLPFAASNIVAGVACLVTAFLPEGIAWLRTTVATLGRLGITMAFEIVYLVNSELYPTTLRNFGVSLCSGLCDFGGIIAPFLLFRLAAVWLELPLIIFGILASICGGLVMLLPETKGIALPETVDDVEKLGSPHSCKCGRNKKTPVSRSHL
Nature of the data set: Inhibition of OCT3 transport of 1-methyl-4-phenylpyridinium. The data set is classed as cell-based.

For data set [6] the following is noted: most prominent effects, clinical; cited from earlier work.
Substrate in data set [7]: CN1CC(=O)NC1=N
Nature of the data set: Creatinine transport by OCT2 in transiently transfected MDCKII cells. The data set is classed as cell-based, human. As to conditions: other: creatinine transport by OCT2, transiently transfected cells.

Substrate in data set [8]: CN1CC(=O)NC1=N
Nature of the data set: Creatinine transport by OCT3 in transiently transfected MDCKII cells. The data set is classed as cell-based, human. As to conditions: other: creatinine transport by OCT3, transiently transfected cells.

Substrate in data set [9]: CN1CC(=O)NC1=N
The experiment in a line: Creatinine transport by OAT2 in transiently transfected MDCKII cells. The data set is classed as cell-based, human. As to conditions: other: creatinine transport by OAT2, transiently transfected cells.

MATE2-K, sequence (Q86VL8 1-566 isoform Q86VL8-3): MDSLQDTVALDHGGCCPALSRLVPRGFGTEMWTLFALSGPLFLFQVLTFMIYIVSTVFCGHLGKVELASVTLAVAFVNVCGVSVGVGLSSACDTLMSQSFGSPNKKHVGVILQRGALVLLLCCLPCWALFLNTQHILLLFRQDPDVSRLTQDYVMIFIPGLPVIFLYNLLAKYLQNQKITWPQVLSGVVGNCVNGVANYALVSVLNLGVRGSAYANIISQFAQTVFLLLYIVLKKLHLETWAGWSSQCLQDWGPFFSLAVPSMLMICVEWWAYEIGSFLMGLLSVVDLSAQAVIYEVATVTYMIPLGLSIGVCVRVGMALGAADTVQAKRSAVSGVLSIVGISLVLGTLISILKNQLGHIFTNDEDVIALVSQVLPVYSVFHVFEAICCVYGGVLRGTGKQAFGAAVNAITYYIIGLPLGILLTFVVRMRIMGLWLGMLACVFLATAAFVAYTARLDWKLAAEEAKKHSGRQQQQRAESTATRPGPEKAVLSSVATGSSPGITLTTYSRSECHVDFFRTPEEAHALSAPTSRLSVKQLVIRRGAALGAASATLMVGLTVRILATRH

Take `Cc1cc(/C=C/C#N)cc(C)c1Nc1ccnc(Nc2ccc(C#N)cc2)n1` [Rilpivirine, rilpivirine]: in data set [1], the Serum creatinine increases was approximately 0.1 mg/dL.

For the molecule `CN/C(=N/CCSCc1nc[nH]c1C)NC#N` [Cimetidine, cimetidine], the IC50 in [2] was determined as 46.6 ± 7.23 µM; in [3] it was 72.8 ± 17 µM; in data set [4] it was 135 ± 16 µM; in data set [5], 87.7 ± 55.1 µM. Further, in data set [6], the “Decreases in creatinine clearance” value was 15–34 ml/min per 1.73 m^2. As for `COc1cc(Cc2cnc(N)nc2N)cc(OC)c1OC` [Trimethoprim, trimethoprim], the IC50 in data set [4] was found to be 68 ± 5.2 µM.

Consider `CC(C)c1nc(CN(C)C(=O)N[C@H](C(=O)N[C@@H](Cc2ccccc2)C[C@H](O)[C@H](Cc2ccccc2)NC(=O)OCc2cncs2)C(C)C)cs1` [Ritonavir, ritonavir], for which, in data set [3] (model substrate, curve could not be generated), the “Concentration-dependent inhibition of OAT2-dependent transport” value is reported as “lack of concentration-dependent inhibition”.

B1: OCT2 (Homo sapiens) (protein)
chain: T2 sequence (O15244 1-555)
Turning to B1, the Km in data set [7] was determined as 1860 ± 370 µM.

B2: OCT3 (Homo sapiens) (protein)
chain: T3 sequence (O75751 1-556)
With B2, the Km in [8] was determined as 1320 ± 380 µM.

B3: OAT2 (Homo sapiens) (protein)
chain: T1 sequence (Q9Y694 1-548)
On to B3, for which, in data set [9], the Michaelis-Menten constant (Km) was determined as 986 ± 177 µM.
